One block for each molecule: values may come before it.
What was measured:
Format in all cases: functional
[1] = organism: Rattus norvegicus; assay: Extent of hydrolysis of C3 acetyl group of 0.4 mM of compound 30 min after exposure by rat liver homogenate
[2] = system: Rattus norvegicus; assay: Antihypertensive activity 12-18 hr after 135 umol/kg p.o. in rats.
[3] = organism: Rattus norvegicus; assay: Extent of hydrolysis of C3 acetyl group of 0.4 mM of compound 5 min after exposure by rat liver homogenate
[4] = system: Rattus norvegicus; assay: Antihypertensive activity 0-6 hr after 135 umol/kg p.o. in rats.
[5] = system: Rattus norvegicus; assay: Antihypertensive activity 6-12h after 135 umol/kg p.o. in rats.
[6] = organism: Oryctolagus cuniculus; assay: In vitro vasorelaxant activity in circumferential strips of potassium-depolarized rabbit aorta.

Compound: COc1ccc([C@@H]2Cc3c(cccc3C(F)(F)F)N(C[C@@H]3CCCN3)C(=O)[C@@H]2OC(C)=O)cc1
Hydrolysis [1]: 0% | Decrease in blood pressure [2]: 38% | Hydrolysis [3]: 0% | Decrease in blood pressure [4]: 44%

IC50 [6]: 100 nM
Compound: COc1ccc([C@@H]2Cc3c(cccc3C(F)(F)F)N(C[C@@H]3CCCN3)C(=O)[C@@H]2O)cc1
Decrease in blood pressure [5]: 21% | Decrease in blood pressure [2]: 21% | Decrease in blood pressure [4]: 32%

IC50 [6]: 130 nM
Compound: COc1ccc([C@@H]2Cc3c(Cl)cccc3N(C[C@@H]3CCCN3)C(=O)[C@@H]2O)cc1
Decrease in blood pressure [5]: 15% | Decrease in blood pressure [2]: 13% | Decrease in blood pressure [4]: 19%

IC50 [6]: 230 nM
Compound: COc1ccc([C@@H]2Cc3cc(OC)ccc3N(C[C@@H]3CCCN3)C(=O)[C@@H]2OC(C)=O)cc1
Decrease in blood pressure [5]: 33% | Hydrolysis [1]: 3% | Decrease in blood pressure [2]: 31% | Hydrolysis [3]: 3% | Decrease in blood pressure [4]: 39%

IC50 [6]: 120 nM
Compound: COc1ccc([C@@H]2Sc3cc(OC)ccc3N(C[C@@H]3CCCN3)C(=O)[C@@H]2OC(C)=O)cc1
Decrease in blood pressure [5]: 39% | Hydrolysis [1]: 7% | Decrease in blood pressure [2]: 37% | Hydrolysis [3]: 3% | Decrease in blood pressure [4]: 42%

IC50 [6]: 2990 nM
Compound: COc1ccc([C@@H]2Cc3ccccc3N(CCN(C)C)C(=O)[C@@H]2OC(C)=O)cc1
Hydrolysis [1]: 53% | Decrease in blood pressure [2]: 13% | Hydrolysis [3]: 18%

Compound: COc1ccc([C@@H]2Cc3cc(C(F)(F)F)ccc3N(CCN(C)C)C(=O)[C@@H]2OC(C)=O)cc1
Decrease in blood pressure [4]: 19%

Compound: COc1ccc([C@@H]2Cc3cc(Cl)ccc3N(CCN(C)C)C(=O)[C@@H]2OC(C)=O)cc1
Decrease in blood pressure [5]: 12% | Decrease in blood pressure [2]: 12% | Decrease in blood pressure [4]: 12%

IC50 [6]: 1120 nM
Compound: COc1ccc([C@@H]2Cc3cc(OC)ccc3N(C[C@@H]3CCCN3)C(=O)[C@@H]2O)cc1
Decrease in blood pressure [5]: 19% | Decrease in blood pressure [2]: 18% | Decrease in blood pressure [4]: 18%

IC50 [6]: 130 nM
Compound: COc1ccc(C2Sc3cc(OC)ccc3N(CCN(C)C)C(=O)C2OC(C)=O)cc1 (racemic)
Decrease in blood pressure [5]: 21% | Decrease in blood pressure [2]: 19% | Decrease in blood pressure [4]: 34%

IC50 [6]: 1900 nM
Compound: COc1ccc(C2Cc3cc(C(F)(F)F)ccc3N(CCN(C)C)C(=O)C2OC(C)=O)cc1 (stereo unspecified)

IC50 [6]: 340 nM
Compound: COc1ccc([C@@H]2Sc3ccccc3N(C[C@@H]3CCCN3)C(=O)[C@@H]2OC(C)=O)cc1
Decrease in blood pressure [5]: 8% | Hydrolysis [1]: 57% | Decrease in blood pressure [2]: 10% | Hydrolysis [3]: 32% | Decrease in blood pressure [4]: 18%

Compound: COc1ccc([C@@H]2Sc3ccccc3N(CCN(C)C)C(=O)[C@@H]2OC(C)=O)cc1 [DILTIAZEM]
Hydrolysis [1]: 100% | Decrease in blood pressure [2]: 19% | Hydrolysis [3]: 68% | Decrease in blood pressure [4]: 20%

Compound: COc1ccc(C2Cc3c(Cl)cccc3N(CCN(C)C)C(=O)C2OC(C)=O)cc1 (racemic)
Decrease in blood pressure [4]: 10%

IC50 [6]: 1320 nM
Compound: COc1ccc([C@@H]2Sc3ccccc3N(C[C@@H]3CCCN3)C(=O)[C@@H]2O)cc1
Decrease in blood pressure [5]: 10% | Decrease in blood pressure [2]: 9% | Decrease in blood pressure [4]: 10%

IC50 [6]: 370 nM
Compound: COc1ccc([C@@H]2Sc3cc(OC)ccc3N(C[C@@H]3CCCN3)C(=O)[C@@H]2O)cc1
Decrease in blood pressure [5]: 33% | Decrease in blood pressure [2]: 23% | Decrease in blood pressure [4]: 32%

IC50 [6]: 120 nM
Compound: COc1ccc([C@@H]2Cc3c(Cl)cccc3N(C[C@@H]3CCCN3)C(=O)[C@@H]2OC(C)=O)cc1
Decrease in blood pressure [5]: 17% | Hydrolysis [1]: 17% | Decrease in blood pressure [2]: 20% | Hydrolysis [3]: 7% | Decrease in blood pressure [4]: 18%

Compound: COc1ccc([C@@H]2Cc3c(cccc3C(F)(F)F)N(CCN(C)C)C(=O)[C@@H]2OC(C)=O)cc1
Decrease in blood pressure [5]: 29% | Hydrolysis [1]: 2% | Decrease in blood pressure [2]: 29% | Hydrolysis [3]: 0% | Decrease in blood pressure [4]: 29%
